Laboratory results reported in patent US12534469B2 (CHILDREN'S HOSPITAL MEDICAL CENTER, priority 2020, dated 2026).

How the values were obtained:
Type in all cases: biochemical
IRAK1 = biological target: T1, IRAK1 (Homo sapiens, UniProt P51617); assay: RBC HotSpot Kinase Assay, IRAK1
T1 construct: purchased Reaction Biology (RBC HotSpot Kinase Assay)
Text: (§1) This assay uses the isolated kinase enzyme. This assay is very useful for determining competition of the inhibitor for ATP and/or substrates and for measuring the kinetics of enzyme inhibition. […] Unlike kinase binding assays that measure competition for ATP, the HotSpot Kinase Assay is a functional assay that measures catalytic activity; as such it measures relative functional potency regardless of the mechanism of enzyme inhibition. This assay uses the form of the various enzymes that are easiest to express, which may not necessarily be the form of the enzyme that exist in the cell. (Sometimes the carboxy terminus has been truncated to aid in expression, or, if it is a receptor kinase, the enzyme itself is isolated from the other parts of the receptor that are involved in regulating kinase activity.)
(§2) The reagent used was as follows: Base Reaction buffer; 20 mM Hepes (pH 7.5), 10 mM MgCl2, 1 mM EGTA, 0.01% Brij35, 0.02 mg/ml BSA, 0.1 mM Na3VO4, 2 mM DTT, 1% DMSO. Required cofactors were added individually to each kinase reaction.
(§3) The reaction procedure was as follows: • 1) Substrates were prepared in freshly prepared Reaction Buffer. • 2) Any required cofactors were delivered to the substrate solution above. • 3) Kinase was delivered into the substrate solution and gently mixed. • 4) Compounds were delivered in 100% DMSO into the kinase reaction mixture by Acoustic technology (Echo550; nanoliter range), followed by incubation for 20 min at room temp. • 5) ^33P-ATP was delivered into the reaction mixture to initiate the reaction. • 6) The mixture was incubated for 2 hours at room temperature. • 7) Kinase activity was detected by P81 filter-binding method.

FLT3 = biological target: T2, FLT3 (Homo sapiens, UniProt P36888); assay: RBC HotSpot Kinase Assay, FLT3
T2 construct: purchased Reaction Biology (RBC HotSpot Kinase Assay)
T2 sequence (P36888 564-958 limits assumed): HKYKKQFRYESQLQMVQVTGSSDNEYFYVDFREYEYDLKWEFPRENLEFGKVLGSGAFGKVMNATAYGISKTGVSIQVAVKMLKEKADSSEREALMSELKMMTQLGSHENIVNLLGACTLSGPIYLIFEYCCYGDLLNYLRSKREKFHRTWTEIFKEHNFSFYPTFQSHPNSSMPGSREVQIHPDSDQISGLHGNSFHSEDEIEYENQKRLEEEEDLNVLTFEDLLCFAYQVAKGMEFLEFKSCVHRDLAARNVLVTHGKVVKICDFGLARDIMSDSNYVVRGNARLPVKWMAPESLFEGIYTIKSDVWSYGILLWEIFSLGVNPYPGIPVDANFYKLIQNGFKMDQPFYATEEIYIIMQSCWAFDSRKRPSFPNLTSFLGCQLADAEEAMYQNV
Text: as §1, §2, §3

IRAK4 = biological target: T3, IRAK4 (Homo sapiens, UniProt Q9NWZ3); assay: RBC HotSpot Kinase Assay, IRAK4; design: purchased Reaction Biology (RBC HotSpot Kinase Assay)
T3 sequence (Q9NWZ3 1-460): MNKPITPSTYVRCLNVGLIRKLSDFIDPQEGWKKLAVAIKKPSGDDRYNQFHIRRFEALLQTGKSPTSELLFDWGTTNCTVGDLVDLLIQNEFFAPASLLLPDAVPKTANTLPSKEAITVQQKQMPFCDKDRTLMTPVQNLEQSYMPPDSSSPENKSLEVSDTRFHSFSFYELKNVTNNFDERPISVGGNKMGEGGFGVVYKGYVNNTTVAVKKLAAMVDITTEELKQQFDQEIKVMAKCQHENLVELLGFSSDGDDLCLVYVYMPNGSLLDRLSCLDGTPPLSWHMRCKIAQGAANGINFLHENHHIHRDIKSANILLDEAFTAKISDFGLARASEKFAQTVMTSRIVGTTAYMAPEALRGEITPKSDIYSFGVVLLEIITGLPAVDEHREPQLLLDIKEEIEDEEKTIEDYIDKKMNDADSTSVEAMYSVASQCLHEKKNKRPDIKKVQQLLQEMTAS
Text: as §1, §2, §3

T1 sequence (P51617 whole entry): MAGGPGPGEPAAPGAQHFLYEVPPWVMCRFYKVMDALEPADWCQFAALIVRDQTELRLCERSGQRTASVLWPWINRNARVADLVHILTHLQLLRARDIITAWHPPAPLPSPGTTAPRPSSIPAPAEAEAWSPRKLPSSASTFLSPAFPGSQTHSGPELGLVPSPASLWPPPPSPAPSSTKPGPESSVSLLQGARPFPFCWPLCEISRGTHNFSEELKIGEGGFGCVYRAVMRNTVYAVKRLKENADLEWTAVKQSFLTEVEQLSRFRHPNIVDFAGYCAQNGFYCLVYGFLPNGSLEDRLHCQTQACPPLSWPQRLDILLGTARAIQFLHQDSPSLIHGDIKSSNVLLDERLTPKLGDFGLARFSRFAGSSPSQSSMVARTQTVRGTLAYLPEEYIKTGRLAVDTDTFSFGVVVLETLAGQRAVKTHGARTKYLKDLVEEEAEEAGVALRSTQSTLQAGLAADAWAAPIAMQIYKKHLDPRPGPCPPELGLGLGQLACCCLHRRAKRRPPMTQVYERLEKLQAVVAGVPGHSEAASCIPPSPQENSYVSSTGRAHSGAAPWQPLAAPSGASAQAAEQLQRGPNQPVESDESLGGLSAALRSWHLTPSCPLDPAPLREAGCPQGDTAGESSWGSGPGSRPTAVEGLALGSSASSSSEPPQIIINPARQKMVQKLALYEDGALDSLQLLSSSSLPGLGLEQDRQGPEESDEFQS

Structure (SMILES)	IC50 (IRAK1)	IC50 (FLT3)	IC50 (IRAK4)
FC(F)n1cc(-c2ccc3ncc(-c4cccc(N[C@H]5CNC[C@@H]5F)n4)n3n2)cn1 [Compound 2, 6-(6-(1-(difluoromethyl)-1 H-pyrazol-4-yl)imidazo[1,2-b]pyridazin-3-yl)-N-((3S,4S)-4-fluoropyrrolidin-3-yl)pyridin-2-amine]	0.948 µM	0.002 µM	0.115 µM
F[C@H]1CNC[C@@H]1Nc1cccc(-c2cnc3ccc(-c4cnn(C5CC5)c4)nn23)n1 [Compound 3, 6-(6-(1-cyclopropyl-1 H-pyrazol-4-yl)imidazo[1,2-b]pyridazin-3-yl)-N-((3S,4S)-4-fluoropyrrolidin-3-yl)pyridin-2-amine]	0.449 µM	0.001 µM	0.071 µM
CC(C)(O)Cn1cc(-c2ccc3ncc(-c4cccc(N[C@H]5CNC[C@@H]5F)n4)n3n2)cn1 [Compound 4, 1-(4-(3-(6-(((3S,4S)-4-fluoropyrrolidin-3-yl)amino)pyridin-2-yl)imidazo[1,2-b]pyridazin-6-yl)-1 H-pyrazol-1-yl)-2-methylpropan-2-ol]	1.36 µM	0.003 µM	0.114 µM
Cn1cc(-c2ccc3ncc(-c4cccc(N[C@H]5CCNC[C@@H]5F)n4)n3n2)cn1 [Compound 5, N-((3S,4S)-3-fluoropiperidin-4-yl)-6-(6-(1-methyl-1H-pyrazol-4-yl)imidazo[1,2-b]pyridazin-3-yl)pyridin-2-amine]	0.266 µM	0.005 µM	0.051 µM
FC(F)n1cc(-c2ccc3ncc(-c4cccc(N[C@H]5CCNC[C@@H]5F)n4)n3n2)cn1 [Compound 6, 6-(6-(1-(difluoromethyl)-1 H-pyrazol-4-yl)imidazo[1,2-b]pyridazin-3-yl)-N-((3S,4S)-3-fluoropiperidin-4-yl)pyridin-2-amine]	0.296 µM	0.004 µM	0.062 µM
F[C@H]1CNCC[C@@H]1Nc1cccc(-c2cnc3ccc(-c4cnn(C5CC5)c4)nn23)n1 [Compound 7, 6-(6-(1-cyclopropyl-1 H-pyrazol-4-yl)imidazo[1,2-b]pyridazin-3-yl)-N-((3S,4S)-3-fluoropiperidin-4-yl)pyridin-2-amine]	0.284 µM	0.004 µM	0.052 µM
CC(C)(O)Cn1cc(-c2ccc3ncc(-c4cccc(N[C@H]5CCNC[C@@H]5F)n4)n3n2)cn1 [Compound 8, 1-(4-(3-(6-(((3S,4S)-3-fluoropiperidin-4-yl)amino)pyridin-2-yl)imidazo[1,2-b]pyridazin-6-yl)-1 H-pyrazol-1-yl)-2-methylpropan-2-ol]	0.704 µM	0.008 µM	0.586 µM
Cn1cc(-c2ccc3ncc(-c4cccc(N[C@H]5CNC[C@@H]5C(F)(F)F)n4)n3n2)cn1 [Compound 11, 6-(6-(1-methyl-1 H-pyrazol-4-yl)imidazo[1,2-b]pyridazin-3-yl)-N-((3R,4S)-4-(trifluoromethyl)pyrrolidin-3-yl)pyridin-2-amine]	0.86 µM	< 0.0005 µM	0.021 µM
FC(F)n1cc(-c2ccc3ncc(-c4cccc(N[C@H]5CNC[C@@H]5C(F)(F)F)n4)n3n2)cn1 [Compound 12, 6-(6-(1-(difluoromethyl)-1 H-pyrazol-4-yl)imidazo[1,2-b]pyridazin-3-yl)-N-((3R,4S)-4-(trifluoromethyl)pyrrolidin-3-yl)pyridin-2-amine]	2.06 µM	0.003 µM	0.128 µM
FC(F)(F)[C@H]1CNC[C@@H]1Nc1cccc(-c2cnc3ccc(-c4cnn(C5CC5)c4)nn23)n1 [Compound 13, 6-(6-(1-cyclopropyl-1 H-pyrazol-4-yl)imidazo[1,2-b]pyridazin-3-yl)-N-((3R,4S)-4-(trifluoromethyl)pyrrolidin-3-yl)pyridin-2-amine]	1.84 µM	0.002 µM	0.106 µM

The next lines start with the values.

IC50 (IRAK1)	IC50 (FLT3)	IC50 (IRAK4)	Structure (SMILES)
1.85 µM	0.003 µM	0.1 µM	CC(C)(O)Cn1cc(-c2ccc3ncc(-c4cccc(N[C@H]5CNC[C@@H]5C(F)(F)F)n4)n3n2)cn1 [Compound 14, 2-methyl-1-(4-(3-(6-(((3R,4S)-4-(trifluoromethyl)pyrrolidin-3-yl)amino)pyridin-2-yl)imidazo[1,2-b]pyridazin-6-yl)-1 H-pyrazol-1-yl)propan-2-ol]
0.226 µM	< 0.0005 µM	0.013 µM	Cn1cc(-c2ccc3ncc(-c4cccc(N[C@@H]5CCCNC5)n4)n3n2)cn1 [Compound 15, (R)-6-(6-(1-methyl-1H-pyrazol-4-yl)imidazo[1,2-b]pyridazin-3-yl)-N-(piperidin-3-yl)pyridin-2-amine]
3.06 µM	< 0.0005 µM	0.157 µM	FC(F)n1cc(-c2ccc3ncc(-c4cccc(N[C@@H]5CCCNC5)n4)n3n2)cn1 [Compound 16]
1.82 µM	< 0.0005 µM	0.009 µM	c1cc(N[C@@H]2CCCNC2)nc(-c2cnc3ccc(-c4cnn(C5CC5)c4)nn23)c1 [Compound 17, (R)-6-(6-(1-cyclopropyl-1 H-pyrazol-4-yl)imidazo[1,2-b]pyridazin-3-yl)-N-(piperidin-3-yl)pyridin-2-amine]
2.44 µM	0.004 µM	1.41 µM	CC(C)(O)Cn1cc(-c2ccc3ncc(-c4cccc(N[C@@H]5CCCNC5)n4)n3n2)cn1 [Compound 18, (R)-2-methyl-1-(4-(3-(6-(piperidin-3-ylamino)pyridin-2-yl)imidazo[1,2-b]pyridazin-6-yl)-1 H-pyrazol-1-yl)propan-2-ol]
0.497 µM	0.006 µM	0.038 µM	Cn1cc(-c2ccc3ncc(-c4cccc(NC5CNCC5(F)F)n4)n3n2)cn1 (stereo not drawn) [Compound 21, N-(4,4-difluoropyrrolidin-3-yl)-6-(6-(1-methyl-1H-pyrazol-4-yl)imidazo[1,2-b]pyridazin-3-yl)pyridin-2-amine]
0.678 µM	0.006 µM	0.044 µM	FC1(F)CNCC1Nc1cccc(-c2cnc3ccc(-c4cnn(C5CC5)c4)nn23)n1 (stereo not drawn) [Compound 22, 6-(6-(1-cyclopropyl-1H-pyrazol-4-yl)imidazo[1,2-b]pyridazin-3-yl)-N-(4,4-difluoropyrrolidin-3-yl)pyridin-2-amine]
1.15 µM	0.016 µM	0.075 µM	FC(F)n1cc(-c2ccc3ncc(-c4cccc(NC5CNCC5(F)F)n4)n3n2)cn1 (stereo not drawn) [Compound 23, 6-(6-(1-(difluoromethyl)-1H-pyrazol-4-yl)imidazo[1,2-b]pyridazin-3-yl)-N-(4,4-difluoropyrrolidin-3-yl)pyridin-2-amine]
1.64 µM	0.017 µM	0.261 µM	CC(C)(O)Cn1cc(-c2ccc3ncc(-c4cccc(NC5CNCC5(F)F)n4)n3n2)cn1 (stereo not drawn) [Compound 24, 1-(4-(3-(6-((4,4-difluoropyrrolidin-3-yl)amino)pyridin-2-yl)imidazo[1,2-b]pyridazin-6-yl)-1H-pyrazol-1-yl)-2-methylpropan-2-ol]
0.114 µM	0.0009 µM	0.02 µM	c1cc(NC2CCNC2)nc(-c2cnc3ccc(-c4cn[nH]c4)nn23)c1 (stereo not drawn) [Compound 26, 6-(6-(1H-pyrazol-4-yl)imidazo[1,2-b]pyridazin-3-yl)-N-(pyrrolidin-3-yl)pyridin-2-amine]
1.62 µM	0.005 µM	0.609 µM	CC(C)n1cc(-c2ccc3ncc(-c4cccc(NC5CCNC5)n4)n3n2)cn1 (stereo not drawn) [Compound 27, 6-(6-(1-isopropyl-1H-pyrazol-4-yl)imidazo[1,2-b]pyridazin-3-yl)-N-(pyrrolidin-3-yl)pyridin-2-amine]
6.58 µM	0.002 µM	2.36 µM	c1ccc(-n2cc(-c3ccc4ncc(-c5cccc(NC6CCNC6)n5)n4n3)cn2)cc1 (stereo not drawn) [Compound 28, 6-(6-(1-phenyl-1H-pyrazol-4-yl)imidazo[1,2-b]pyridazin-3-yl)-N-(pyrrolidin-3-yl)pyridin-2-amine]
